Laboratory results as given in article PMC5344255, “Design, Synthesis and Biochemical Evaluation of Novel Selective Estrogen Receptor Ligand Conjugates Incorporating an Endoxifen-Combretastatin Hybrid Scaffold” (Biomedicines, 2016).
Where “and” joins values, the source holds several entries; their conditions need not be identical. Identical values can stand only once.

Assays:
[1] = test system: MCF-7 human breast cancer cells; test: Lactate dehydrogenase (LDH) cytotoxicity assay in MCF-7; format: cell-based; conditions: % cell lysis at 10 µM
Experimental: (§1) In this assay, the release of cytoplasmic lactate dehydrogenase (LDH) is used as a measure of cell lysis. MCF-7 and MDA-MB-231 cells were seeded at a density of 1 × 10^4 cells/well in a 96-well plate and incubated for 24 h. The cells were then dosed with 2 μL volumes of the test compounds, over the concentration range 1 nM–50 μM. Cytotoxicity was determined using the CytoTox 96 nonradioactive cytotoxicity assay (Promega, Madison, WI, USA) following the manufacturer’s protocol.

human ERα = target: T1, human ERα (Homo sapiens, UniProt P03372); test: Estrogen receptor fluorescence polarisation competitive binding assay, ERα; conditions: for IC50: competitive binding, fluoromone ligand; for Selectivity (α/β): ratio of ER binding IC50 values
T1 construct: purchased Invitrogen; host or cells: baculovirus expression system
T1 sequence (P03372 1-595): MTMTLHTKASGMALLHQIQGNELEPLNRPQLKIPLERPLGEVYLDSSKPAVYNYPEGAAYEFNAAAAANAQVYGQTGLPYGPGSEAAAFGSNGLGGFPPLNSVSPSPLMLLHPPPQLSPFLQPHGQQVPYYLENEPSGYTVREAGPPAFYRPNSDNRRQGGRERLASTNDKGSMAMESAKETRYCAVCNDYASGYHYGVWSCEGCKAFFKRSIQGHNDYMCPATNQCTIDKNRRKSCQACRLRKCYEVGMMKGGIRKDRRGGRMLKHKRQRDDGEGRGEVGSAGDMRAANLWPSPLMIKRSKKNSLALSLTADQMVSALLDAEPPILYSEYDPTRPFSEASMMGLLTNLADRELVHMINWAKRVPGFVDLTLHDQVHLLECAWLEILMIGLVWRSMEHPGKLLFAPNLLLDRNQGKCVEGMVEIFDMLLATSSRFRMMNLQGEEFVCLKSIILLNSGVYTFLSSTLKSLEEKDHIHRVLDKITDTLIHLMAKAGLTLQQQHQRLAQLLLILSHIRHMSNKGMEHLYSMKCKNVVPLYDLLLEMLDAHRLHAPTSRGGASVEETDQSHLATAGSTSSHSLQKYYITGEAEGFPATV

human ERβ = target: T2, human ERβ (Homo sapiens, UniProt Q92731); test: Estrogen receptor fluorescence polarisation competitive binding assay, ERβ; conditions: fluoromone ligand
T2 construct: purchased Invitrogen; host or cells: baculovirus expression system
T2 sequence (Q92731 whole entry): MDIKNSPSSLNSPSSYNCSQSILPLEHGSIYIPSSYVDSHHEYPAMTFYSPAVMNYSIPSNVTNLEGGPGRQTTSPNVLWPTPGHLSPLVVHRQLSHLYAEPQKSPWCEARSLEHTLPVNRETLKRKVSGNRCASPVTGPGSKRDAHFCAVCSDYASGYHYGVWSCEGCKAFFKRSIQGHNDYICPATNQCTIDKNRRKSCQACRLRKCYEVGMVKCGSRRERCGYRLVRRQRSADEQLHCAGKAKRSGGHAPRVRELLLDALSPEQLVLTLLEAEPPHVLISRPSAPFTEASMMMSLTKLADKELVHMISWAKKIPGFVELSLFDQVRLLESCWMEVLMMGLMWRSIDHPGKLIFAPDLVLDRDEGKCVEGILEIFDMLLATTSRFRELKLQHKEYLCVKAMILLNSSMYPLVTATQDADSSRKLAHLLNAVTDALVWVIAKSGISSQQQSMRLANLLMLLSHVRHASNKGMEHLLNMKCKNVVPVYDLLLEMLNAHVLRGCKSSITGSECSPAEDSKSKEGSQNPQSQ

[2] = test system: MCF-7 human breast cancer cells; test: MTT assay for antiproliferative effects in MCF-7; format: cell-based; conditions: Homo sapiens, MCF7, MCF-7, MTT assay
Experimental: (§2) The human breast carcinoma cell line, MCF-7, was purchased from the European Collection of Animal Cell Cultures (ECACC). The cells were maintained in MCF-7 complete medium; consisting of Eagle’s Minimum Essential Medium (MEM) supplemented with 10% (v/v) Foetal Bovine Serum (FBS), 2 mM L-glutamine, 100 μg/mL penicillin/streptomycin and 1% (v/v) non-essential amino acids. Cell cultures were maintained at 37 °C under a humidified atmosphere of 5% CO2/95% O2. The human breast carcinoma cell line, MDA, was purchased from the European Collection of Animal Cell Cultures (ECACC). The cells were maintained in MDA complete medium; consisting of Dulbecco’s Modified Eagle’s Medium (D-MEM) supplemented with 10% (v/v) Foetal Bovine Serum (FBS), 2 mM L-glutamine, 100 μg/mL penicillin/streptomycin. Cell cultures were maintained at 37 °C under a humidified atmosphere of 5% CO2/95% O2. The MTT assay was performed according to the reported protocol. The tetrazolium salt, 3-(4,5-dimethylthiazol-2-yl)-2,5-diphenyltetrazolium bromide (MTT) is taken up only by metabolically active cells and cleaved to form a formazan dye by mitochondrial dehydrogenases. Assays where repeated in three experiments performed in triplicate (unless otherwise stated) and reported results represent the mean value ± standard error mean. Graphs of percentage cell viability versus concentration of the subject compound were processed using PRISM [31].

[3] = HPLC stability study in phosphate buffer; format: physicochemical; conditions: pH values in the range 4–9
Experimental: Analytical high-performance liquid chromatography (HPLC) stability studies were performed using a Symmetry® column (C18, 5 µm, 4.6 × 150 mm), a Waters 2487 Dual Wavelength Absorbance detector, a Waters 1525 binary HPLC pump and a Waters 717 plus Autosampler (Waters Corporation, Milford, MA, USA). Samples were detected at wavelength of 254 nm. All samples were analysed using acetonitrile (80%):water (20%) as the mobile phase over 10 min and a flow rate of 1 mL/min. Stock solutions are prepared by dissolving 5mg of compound in 10 mL of mobile phase. Phosphate buffers at the desired pH values (4, 7.4, and 9) were prepared in accordance with the British Pharmacopoeia monograph 2015. 30 µL of stock solution was diluted with 1 mL of appropriate buffer, shaken and injected immediately. Samples were withdrawn and analysed at time intervals of t = 0 min, 5 min, 30 min, 60 min, 90 min, 120 min, 24 h and 48 h.

[4] = test system: MDA-MB-231 human breast cancer cells; test: MTT assay for antiproliferative effects in MDA-MB-231; format: cell-based; conditions: MDA-MB-231, MTT assay
Experimental: as §2, with “Cell cultures were maintained at 37 °C under a humidified atmosphere of 5% CO2/95% O2.” left out, “Assays where repeated in three experiments performed in triplicate (unless otherwise stated) and reported results represent the mean value ± standard error mean.” left out

[5] = test system: MDA-MB-231 human breast cancer cells; test: Lactate dehydrogenase (LDH) cytotoxicity assay in MDA-MB-231; format: cell-based; conditions: % cell lysis at 10 μM
Experimental: as §1

[6] = mean of at least three experiments in triplicate

IC50 (human ERα) | Selectivity (α/β) (human ERα) | IC50 (human ERβ) | IC50 [2, 6] | IC50 ([2]; values in nM) | half-life at 14.6 µg/mL [3] | IC50 [4] | SMILES | % Cell Death at 10 μM [1] | % Cell Death at 10 μM [5]
47 nM | 2.52 | 118 nM | 29 nM | 0.029 nM | – | – | CCC(=C(c1ccc(O)cc1)c1ccc(OCCNC)cc1)c1ccccc1 [Compound 11, 4-{1-[4-(2-Methylaminoethoxy)phenyl]-2-phenylbut-1-enyl}phenol, reference compound] | 23% | –
– | – | – | 41 nM | – | > 24 h | 4090 nM | CCC(=C(c1ccc(O)cc1)c1ccc(OCCN(C)C(=O)/C(=C/c2cc(OC)c(OC)c(OC)c2)c2ccc(OC)cc2)cc1)c1ccc(O)cc1 (mixture of isomers) [Compound 32, (E)-N-(2-{4-[(E/Z)-1,2-Bis-(4-hydroxyphenyl)but-1-enyl]phenoxy}ethyl)-2-(4-methoxyphenyl)-N-methyl-3-(3,4,5-trimethoxyphenyl)acrylamide] | 16% | 0%
44.1 nM and 44 nM | 0.90 | 39.7 nM and 40 nM | 28 nM | – | – | – | CCC(=C(c1ccc(O)cc1)c1ccc(OCCNC)cc1)c1ccc(O)cc1 [Compound 12, 4-(1-(4-(2-(Methylamino)ethoxy)phenyl)-2-(4-hydroxyphenyl)but-1-enyl)phenol] | 11% | –
